Legend:
α1b-AR = target: T1, α1b-AR (Homo sapiens, UniProt P35368); experiment: α1-Adrenergic receptor radio-ligand (125I-HEAT) binding assay, α1b subtype; conditions: for Ki: Receptor Binding, Ki α1b-AR, COS-7 cell membranes, 125I-HEAT
T1 sequence (P35368 1-520): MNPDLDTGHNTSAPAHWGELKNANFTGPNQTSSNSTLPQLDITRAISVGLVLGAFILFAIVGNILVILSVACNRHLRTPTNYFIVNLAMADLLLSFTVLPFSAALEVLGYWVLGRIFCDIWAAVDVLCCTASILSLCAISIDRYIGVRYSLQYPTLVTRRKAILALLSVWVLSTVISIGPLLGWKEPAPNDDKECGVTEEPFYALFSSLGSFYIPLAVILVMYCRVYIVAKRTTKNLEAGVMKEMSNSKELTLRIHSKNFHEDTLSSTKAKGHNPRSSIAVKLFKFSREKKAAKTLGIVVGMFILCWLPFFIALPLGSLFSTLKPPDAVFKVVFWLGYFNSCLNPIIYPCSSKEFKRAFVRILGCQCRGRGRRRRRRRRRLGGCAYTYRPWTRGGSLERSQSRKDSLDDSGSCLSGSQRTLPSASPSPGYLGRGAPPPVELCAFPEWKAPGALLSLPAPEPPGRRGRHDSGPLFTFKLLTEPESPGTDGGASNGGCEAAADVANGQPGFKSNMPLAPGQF

α1d-AR = target: T2, α1d-AR (Homo sapiens, UniProt P25100); experiment: α1-Adrenergic receptor radio-ligand (125I-HEAT) binding assay, α1d subtype; conditions: for Ki: COS-7 cell membranes, 125I-HEAT, read-out: Receptor Binding, Ki α1d-AR
T2 construct: expressed in transfected cells; host or cells: COS-7
T2 sequence (P25100 1-572): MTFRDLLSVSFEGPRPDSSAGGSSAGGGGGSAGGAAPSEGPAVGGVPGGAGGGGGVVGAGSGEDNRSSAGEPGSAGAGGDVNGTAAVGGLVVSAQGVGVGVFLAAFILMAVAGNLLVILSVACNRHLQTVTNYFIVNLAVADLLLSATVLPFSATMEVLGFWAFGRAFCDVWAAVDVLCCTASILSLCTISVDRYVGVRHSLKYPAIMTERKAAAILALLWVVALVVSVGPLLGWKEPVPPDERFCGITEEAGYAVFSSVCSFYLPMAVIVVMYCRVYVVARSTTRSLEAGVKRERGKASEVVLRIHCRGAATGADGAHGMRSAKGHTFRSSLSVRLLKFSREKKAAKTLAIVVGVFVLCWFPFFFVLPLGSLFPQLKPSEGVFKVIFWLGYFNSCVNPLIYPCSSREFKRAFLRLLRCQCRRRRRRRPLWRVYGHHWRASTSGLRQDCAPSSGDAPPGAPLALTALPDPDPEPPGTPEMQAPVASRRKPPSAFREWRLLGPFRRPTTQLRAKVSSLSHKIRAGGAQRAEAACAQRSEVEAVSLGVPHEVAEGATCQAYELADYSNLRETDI
Description: (§1) α1-Adrenergic Receptor Binding Assay: Preparation of COS Cell Membranes
(§2) Membranes were prepared from COS-7 cells that had been transfected with one of the three α1-AR subtypes by the following method. COS cells from ten 100 mm tissue culture plates were scraped into 5 mL TE (50 mM Tris-HCl, 5 mM EDTA, pH 7.4). The cell suspension was disrupted with a Brinkman Polytron, setting 8, for 10 sec. The disrupted cells were centrifuged at 1000×g for 10 min at 4° C. Supernatants were centrifuged at 34,500×g for 20 min at 4° C. The membrane pellets were suspended in 2 mL TNE (50 mM Tris-HCl, 5 mM EDTA, 150 mM NaCl, pH7.4). An aliquot of the membrane suspension was stored at −70° C. until use. The protein concentration was determined using the BioRad DC protein assay kit following membrane solubilization with Triton X-100.
(§3) Radio-Ligand Binding Assay
Triplicate determinations of radio-ligand binding in the presence of increasing: concentrations of testing compound were made. The reagents were added to 96-well polypropylene plate wells using the Biomek 1000 robot (Beckman Instruments). […] The plate was incubated at rt for 1 hr. The contents of the wells were filtered through a GF/C membrane Unifilter plate (Packard Instruments) using the Packard Filtermate cell harvester. The filter plates were dried in a vacuum oven for 30 min at 40° C. 25 μL Microscint 20 liquid scintillation fluid (Packard Instuments) was added to each well. The radioactive content was analyzed in the TopCount microplate scintillation counter (Packard Instruments).

α1a-AR = target: T3, α1a-AR (Homo sapiens, UniProt P35348); experiment: α1-Adrenergic receptor radio-ligand (125I-HEAT) binding assay, α1a subtype; conditions: for Ki: COS-7 cell membranes, 125I-HEAT
T3 construct: expressed in transfected cells; host or cells: COS-7
T3 sequence (P35348 1-466): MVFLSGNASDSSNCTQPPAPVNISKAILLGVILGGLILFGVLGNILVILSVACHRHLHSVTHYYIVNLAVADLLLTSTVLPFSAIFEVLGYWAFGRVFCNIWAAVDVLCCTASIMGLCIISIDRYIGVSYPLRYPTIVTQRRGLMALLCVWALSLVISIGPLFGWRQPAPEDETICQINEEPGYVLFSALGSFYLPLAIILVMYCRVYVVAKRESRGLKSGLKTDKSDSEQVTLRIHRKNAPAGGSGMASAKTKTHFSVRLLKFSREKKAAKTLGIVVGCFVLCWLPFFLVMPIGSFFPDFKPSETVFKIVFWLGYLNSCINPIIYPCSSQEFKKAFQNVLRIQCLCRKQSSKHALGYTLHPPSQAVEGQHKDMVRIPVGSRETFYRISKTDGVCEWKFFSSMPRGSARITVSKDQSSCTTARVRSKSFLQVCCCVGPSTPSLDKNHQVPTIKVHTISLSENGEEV
Description: as §1, §2, §3
Triplicate determinations of radio-ligand binding in the presence of increasing: concentrations of testing compound were made. The reagents were added to 96-well polypropylene plate wells using the Biomek 1000 robot (Beckman Instruments). Each assay well contained 140 μl TNE, 25 μL ^125I-HEAT (specific activity 2200 Ci/mmol, Dupont-NEN, 50 pM final), 10 μL testing compound dissolved in DMSO (1 pM to 10 μM in half-log increments, final), and 25 μL appropriate α1-AR membrane subtype suspension in TNE (0.5 ng/μL for the α1a and α1b subtypes and 13 ng/μL for the α1d subtype). The plate was incubated at rt for 1 hr. The contents of the wells were filtered through a GF/C membrane Unifilter plate (Packard Instruments) using the Packard Filtermate cell harvester. The filter plates were dried in a vacuum oven for 30 min at 40° C. 25 μL Microscint 20 liquid scintillation fluid (Packard Instuments) was added to each well. The radioactive content was analyzed in the TopCount microplate scintillation counter (Packard Instruments).

Kd (α1b-AR; read-out: Kd used in the Ki calculation, α1b-AR, radio-ligand)	Kd (α1d-AR; radio-ligand, read-out: Kd used in the Ki calculation, α1d-AR)	Kd (α1a-AR; radio-ligand, read-out: Kd used in the Ki calculation, α1a-AR)	Ki (α1b-AR)	Ki (α1d-AR)	Ki (α1a-AR)	SMILES
79 nM	50 nM	81.5 nM	–	–	–	O=C1c2ccccc2CCC1CNCCc1ccc(O)c(I)c1 (stereo not shown) [125I-HEAT, reference compound]
–	–	–	150 nM	4.8 nM	5.6 nM	CC(C)Oc1ccccc1N1CCN([C@H]2CC[C@@H](NS(=O)(=O)c3ccc(F)cc3)CC2)CC1 [Cpd 10, 4-Fluoro-N-cis-{4-[4-(2-isopropoxy-phenyl)-piperazin-1-yl]-cyclohexyl}-benzenesulfonamide]
–	–	–	129 nM	1.1 nM	18 nM	Cc1c(Cl)cccc1S(=O)(=O)N[C@H]1CC[C@@H](N2CCN(c3ccccc3OC(C)C)CC2)CC1 [Cpd 11, 3-Chloro-N-cis-{4-[4-(2-isopropoxy-phenyl)-piperazin-1-yl]-cyclohexyl}-2-methyl-benzenesulfonamide]
–	–	–	246 nM	4.3 nM	11.6 nM	CC(C)Oc1ccccc1N1CCN([C@H]2CC[C@@H](NS(=O)(=O)c3ccc(F)c(Cl)c3)CC2)CC1 [Cpd 14, 3-Chloro-4-fluoro-N-cis-{4-[4-(2-isopropoxy-phenyl)-piperazin-1-yl]-cyclohexyl}-benzenesulfonamide]
–	–	–	162 nM	5 nM	6 nM	COc1ccc(F)cc1S(=O)(=O)N[C@H]1CC[C@@H](N2CCN(c3ccccc3OC(C)C)CC2)CC1 [Cpd 15, 5-Fluoro-N-cis-{4-[4-(2-isopropoxy-phenyl)-piperazin-1-yl]-cyclohexyl}-2-methoxy-benzenesulfonamide]
–	–	–	167 nM	11.1 nM	10.5 nM	Cc1ccc(S(=O)(=O)N[C@H]2CC[C@@H](N3CCN(c4ccccc4OC(C)C)CC3)CC2)cc1Cl [Cpd 18, 3-Chloro-N-cis-{4-[4-(2-isopropoxy-phenyl)-piperazin-1-yl]-cyclohexyl}-4-methyl-benzenesulfonamide]
–	–	–	473 nM	14 nM	35.9 nM	COc1ccc(C(F)(F)F)cc1S(=O)(=O)N[C@H]1CC[C@@H](N2CCN(c3ccccc3OC(C)C)CC2)CC1 [Cpd 20, N-cis-{4-[4-(2-Isopropoxy-phenyl)-piperazin-1-yl]-cyclohexyl}-2-methoxy-5-trifluoromethyl-benzenesulfonamide]

Continued, molecule first:

SMILES	Kd (α1b-AR; read-out: Kd used in the Ki calculation, α1b-AR, radio-ligand)	Kd (α1d-AR; radio-ligand, read-out: Kd used in the Ki calculation, α1d-AR)	Kd (α1a-AR; radio-ligand, read-out: Kd used in the Ki calculation, α1a-AR)	Ki (α1b-AR)	Ki (α1d-AR)	Ki (α1a-AR)
CC(C)Oc1ccccc1N1CCN([C@H]2CC[C@@H](NS(=O)(=O)c3ccc(Cl)cc3Cl)CC2)CC1 [Cpd 1, 2,4-Dichloro-N-cis-{4-[4-(2-isopropoxy-phenyl)-piperazine-1-yl]-cyclohexyl}-benzenesulfonamide]	–	–	–	177 nM	0.64 nM	4.5 nM
COc1ccc(Cl)cc1S(=O)(=O)N[C@H]1CC[C@@H](N2CCN(c3ccccc3OC(C)C)CC2)CC1 [Cpd 3, 5-Chloro-N-cis-{4-[4-(2-isopropoxy-phenyl)-piperazin-1-yl]-cyclohexyl}-2-methoxy-benzenesulfonamide]	–	–	–	47.6 nM	–	2.5 nM
COc1ccc(C)cc1S(=O)(=O)N[C@H]1CC[C@@H](N2CCN(c3ccccc3OC(C)C)CC2)CC1 [Cpd 4, N-cis-{4-[4-(2-Isopropoxy-phenyl)-piperazin-1-yl]-cyclohexyl}-2-methoxy-5-methyl-benzenesulfonamide]	–	–	–	141 nM	3.8 nM	4.6 nM
CC(C)Oc1ccccc1N1CCN([C@H]2CC[C@@H](NS(=O)(=O)c3ccccc3S(C)(=O)=O)CC2)CC1 [Cpd 5, N-cis-{4-[4-(2-Isopropoxy-phenyl)-piperazin-1-yl]-cyclohexyl}-2-methanesulfonyl-benzenesulfonamide]	–	–	–	118 nM	2.8 nM	12.5 nM
CC(C)Oc1ccccc1N1CCN([C@H]2CC[C@@H](NS(=O)(=O)c3ccc(C(F)(F)F)cc3)CC2)CC1 [Cpd 9, N-cis-{4-[4-(2-Isopropoxy-phenyl)-piperazin-1-yl]-cyclohexyl}-4-trifluoromethyl-benzenesulfonamide]	–	–	–	124 nM	18 nM	25 nM
CC(C)Oc1ccccc1N1CCN([C@H]2CC[C@@H](NS(=O)(=O)c3cc(Cl)ccc3F)CC2)CC1 [Cpd 12, 5-Chloro-2-fluoro-N-cis-{4-[4-(2-isopropoxy-phenyl)-piperazin-1-yl]-cyclohexyl}-benzenesulfonamide]	–	–	–	66 nM	0.4 nM	3.8 nM
CC(C)Oc1ccccc1N1CCN([C@H]2CC[C@@H](NS(=O)(=O)c3ccccc3C(F)(F)F)CC2)CC1 [Cpd 13, N-cis-{4-[4-(2-Isopropoxy-phenyl)-piperazin-1-yl]-cyclohexyl}-2-trifluoromethyl-benzenesulfonamide]	–	–	–	190 nM	3.4 nM	23 nM
CC(C)Oc1ccccc1N1CCN([C@H]2CC[C@@H](NS(=O)(=O)c3ccc(OC(F)(F)F)cc3)CC2)CC1 [Cpd 17, N-cis-{4-[4-(2-Isopropoxy-phenyl)-piperazin-1-yl]-cyclohexyl}-4-trifluoromethoxy-benzenesulfonamide]	–	–	–	174 nM	2.1 nM	17.4 nM
COc1ccc([N+](=O)[O-])cc1S(=O)(=O)N[C@H]1CC[C@@H](N2CCN(c3ccccc3OC(C)C)CC2)CC1 [Cpd 19, N-cis-{4-[4-(2-Isopropoxy-phenyl)-piperazin-1-yl]-cyclohexyl}-2-methoxy-5-nitro-benzenesulfonamide]	–	–	–	85.3 nM	2.2 nM	4.3 nM
COc1ccc(Cl)cc1S(=O)(=O)N[C@H]1CC[C@H](N2CCN(c3ccccc3OC(C)C)CC2)CC1 [Cpd 31, 5-Chloro-N-trans-{4-[4-(2-isopropoxy-phenyl)-piperazin-1-yl]-cyclohexyl}-2-methoxy-benzenesulfonamide]	–	–	–	250 nM	–	3.8 nM
